# Assay results as given in patent US9738610B2, “Indazole derivatives and uses thereof” (Whitehead Institute for Biomedical Research, priority 2012, dated 2017).
# Key:
# [1] = tested on: fluconazole-resistant C. albicans strain Gu5; details: cited from earlier work
# [2] = tested on: fluconazole-susceptible C. albicans strain 90028; details: cited from earlier work
# Plasma protein binding = details: human, plasma
# C. albicans CaCi-8 = assay: microbe, parasite or virus in culture; type: cell-based, Candida albicans; details: read-out: Target Potency (μM) Mean ± S.E.M CaCi-8^a IC50; in the presence of fluconazole
# In short: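 Hits tested for chemosensitization of the fluconazole-resistant CaCi-8 strain, for inherent antifungal activity without fluconazole, and for mammalian fibroblast toxicity by fluorescence reporter. Geldanamycin plus fluconazole served as positive control; a Saccharomyces assay assigned mechanism to Hsp90, calcineurin or other pathways.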
# Plasma stability = details: % remaining in human plasma after a 5-hour incubation
# C. albicans CaCi-2 [3] = assay: Secondary single-agent (no-fluconazole) activity assay; type: cell-based, Candida albicans; details: Candida albicans, CACI2; in the absence of fluconazole; read-out: Target Potency (μM) Mean ± S.E.M CaCi-2^b IC50
# In short: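 C. albicans CaCi-2 in RPMI synthetic defined medium with 1% Pen/Strep, starting OD600 0.00015, exposed to compound alone (no fluconazole) for 48 h at 37 °C without agitation. Growth read as Alamar Blue fluorescence (1:200 final) after 2 h at room temperature.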
# [4] = tested on: NIH-3T3 mammalian fibroblasts; assay: Counterscreen mammalian cell toxicity assay (fibroblast toxicity); type: cell-based, murine; details: Mus musculus, NIH3T3; footnote: in the absence of fluconazole; read-out: Anti-target Potency (μM) Mean ± S.E.M Fibroblasts^b IC50
# PBS solubility = details: PBS, aqueous buffer
# Aspergillus terreus = Aspergillus terreus susceptibility test (CLSI M38-A2); type: cell-based
# Procedure: Aspergillus terreus (A. terreus) susceptibility testing was performed as described in Clinical Laboratory Standards Institute document […]-A2 (CLSI […]-A2) (CLSI. Reference Method for Broth Dilution Antifungal Susceptibility Testing of Filamentous Fungi; Approved Standard-Second Edition. CLSI, 940 West Valley Road, Suite 1400, Wayne, Pa. 19087-1898 USA, 2003).
# [5] = tested on: Saccharomyces cerevisiae strain W303-1a; assay: In vivo inhibition of fungal respiration (growth on glycerol); type: cell-based; details: glycerol medium, 48 hours
# Procedure: Saccharomyces cerevisiae (S. cerevisiae) strain W303-1a was grown overnight in Yeast-Peptone-Dextrose media, washed, and diluted into Yeast Nitrogen Base media with 2.5% glycerol containing compounds at a range of dilutions.
# C. albicans = assay: Candida albicans susceptibility test (CLSI M27-A3); type: cell-based; details: FIG. 9
# Procedure: Candida albicans susceptibility testing was performed as described in Clinical Laboratory Standards Institute document M27-A3 (CLSI M27-A3) (CLSI. Reference Method for Broth Dilution Antifungal Susceptibility Testing of Yeasts; Approved Standard—Third Edition. CLSI, 940 West Valley Road, Suite 1400, Wayne, Pa. 19087-1898 USA, 2003).
# [6] = IC50 values and selectivity of Table 10A (target yeast, anti-target human cytochrome); type: biochemical
# Procedure: (§1) All measurements were performed in triplicate.
# yeast = target: T1, yeast (Saccharomyces cerevisiae, UniProt P00163); assay: as above; type: biochemical; details: for Selectivity* (anti-target IC50)/(target IC50): target yeast, anti-target human cytochrome
# T1 construct: Mitochondrial membranes were prepared from yeast; endogenous in cells; host or cells: yeast (mitochondrial membranes)
# Procedure: as §1
# [7] = tested on: Candida albicans wild-type; assay: De novo emergence of fluconazole resistance (colonies after six days); type: cell-based; details: I-97 0.5 μM combined with fluconazole 32 mg/L
# Procedure: Candida albicans wild-type (WT, FIG. 13, top panel) or rip1/rip1 homozygous deletion mutant (rip1 Δ/Δ, FIG. 13, middle panel) were plated on media in the presence of fluconazole (32 mg/L) or in the absence of fluconazole. The emergence of colonies was monitored after six days.
# [8] = tested on: Candida albicans strain SC5314; assay: Cytotoxicity to fluconazole-sensitive strain SC5314; type: cell-based
# [9] = tested on: Candida albicans strain CaCi-2; assay: Cytotoxicity to fluconazole-resistant strain CaCi-2; type: cell-based
# fungus = details: cited from earlier work
# CaCi-2 = assay: MIC of fluconazole against CaCi-2; type: cell-based; details: Candida albicans; read-out: Minimum inhibitory concentration (MIC) against CaCi-2
# Procedure: (§2) In order to identify non-fungitoxic chemosensitizers (“probes” or “probe compounds”) of C. albicans, compounds from the NIH's Molecular Libraries Small Molecule Repository (MLSMR) (mli.nih.gov/mli/secondary-menu/mlscn/ml-small-molecule-repository/) were evaluated in the screening cascade summarized in FIG. 3. The C. albicans strains used in the primary screen and secondary assay 1 (CaCi-2 and CaCi-8, respectively) are both clinical isolates that partially respond to fluconazole treatment (Redding et al., Clin. Infect. Dis. 1994, 18, 240-242). […] In the primary assay, CaCi-2 cells are exposed to 8 μg/mL fluconazole; this induces a basal level of 60-80% growth inhibition with additional suppression of the trailing growth associated with this particular strain (Redding et al., Clin. Infect. Dis. 1994, 18, 240-242).
# CaCi-8 = assay: MIC of fluconazole against CaCi-8; type: cell-based; details: Candida albicans; read-out: Minimum inhibitory concentration (MIC) against CaCi-8
# Procedure: as §2
# C. albicans CaCi-2 [10] = assay: CaCi-2 growth inhibition in the presence of 8 μg/ml fluconazole (Alamar Blue); type: cell-based, Candida albicans; details: Candida albicans, CACI2; 8 μg/mL fluconazole alone in the primary assay; read-out: Basal level of growth inhibition of CaCi-2
structure (smiles),measurement,setting,value
"Clc1ccc2c(c1)nnc1nnnn12 [CTBT, 7-chlorotetrazolo[5,1-c]benzo[1,2,4]triazine]",Concentrations inhibiting growth in the absence of fluconazole,[1],greater than 2.4 μM
same,MIC when combined with fluconazole,[1],2.4 µM
same,Activity in the absence of fluconazole,[2],no activity
same,MIC when combined with fluconazole,[2],2.4 µM
O=C(Cn1nc(C(=O)N2CCCCC2)c2ccccc21)N1CCOCC1 [Compound 46378661],fraction unbound,Plasma protein binding,0.48
same,IC50,C. albicans CaCi-8,> 26 µM
same,Plasma Stability,Plasma stability,> 99%
same,IC50,C. albicans CaCi-2 [3],> 26 µM
same,IC50,[4],> 6 µM
same,solubility,PBS solubility,529 µM
Cc1nn(S(C)(=O)=O)c2ccccc12 [Compound 46856251],fraction unbound,Plasma protein binding,0.37
same,IC50,C. albicans CaCi-8,> 26 µM
same,Plasma Stability,Plasma stability,> 99%
same,IC50,C. albicans CaCi-2 [3],> 26 µM
same,IC50,[4],> 6 µM
same,solubility,PBS solubility,494 µM
CCOC(=O)c1c2ccccc2nn1Cc1ccc(Cl)cc1 [Compound 46856252],fraction unbound,Plasma protein binding,< 0.01
same,IC50,C. albicans CaCi-8,> 26 µM
same,Plasma Stability,Plasma stability,70%
same,IC50,C. albicans CaCi-2 [3],> 26 µM
same,IC50,[4],> 6 µM
same,solubility,PBS solubility,< 1 µM
FC(F)(F)c1ccc(-c2n[nH]c3ccccc23)cc1 [Compound 49635869],fraction unbound,Plasma protein binding,< 0.01
same,IC50,C. albicans CaCi-8,> 26 µM
same,Plasma Stability,Plasma stability,79%
same,IC50,C. albicans CaCi-2 [3],> 26 µM
same,IC50,[4],> 6 µM
same,solubility,PBS solubility,< 1 µM
COC(=O)Cn1nc(-c2ccccc2)c2cccc(C(F)(F)F)c21 [Compound 49835842],fraction unbound,Plasma protein binding,< 0.01
same,IC50,C. albicans CaCi-8,> 26 µM
same,Plasma Stability,Plasma stability,50%
same,IC50,C. albicans CaCi-2 [3],> 26 µM
same,IC50,[4],> 6 µM
same,solubility,PBS solubility,< 1 µM
COC(=O)Cn1nc(-c2cccc(OCc3ccccc3)c2)c2ccccc21 [Compound I-7],Inhibitory activity against A. terreus,Aspergillus terreus,shows inhibitory activity
same,Inhibitory activity against S. cerevisiae (respiratory growth),[5],shows inhibitory activity
c1ccc(COc2cccc(-c3nn(Cc4nnco4)c4ccccc34)c2)cc1 [Compound I-52],Inhibitory activity against A. terreus,Aspergillus terreus,shows inhibitory activity
same,Inhibitory activity against S. cerevisiae (respiratory growth),[5],shows inhibitory activity
same,Inhibition of C. albicans in absence and presence of fluconazole (FCZ),C. albicans,more active in inhibiting C. albicans in presence of fluconazole (FCZ) than in absence thereof
c1ccc(-c2nn(Cc3nnco3)c3ccccc23)cc1 [Compound I-74],IC50,[6],3 µM
same,Selectivity* (anti-target IC50)/(target IC50),yeast,53
CNC(=O)Cn1nc(-c2ccccc2)c2ccccc21 [Compound I-75],IC50,[6],> 80 µM
COC(=O)Cn1nc(-c2ccsc2)c2ccccc21 [Compound I-77],IC50,[6],0.625 µM
same,Selectivity* (anti-target IC50)/(target IC50),yeast,48
COC(=O)Cn1nc(-c2cccc(OCCCC3CCCCC3)c2)c2ccccc21 [Compound I-78],IC50,[6],0.01 µM
same,Selectivity* (anti-target IC50)/(target IC50),yeast,100
COC(=O)Cn1nc(-c2cccc(OCCC(C)(C)C)c2)c2ccccc21 [Compound I-79],IC50,[6],0.04 µM
same,Selectivity* (anti-target IC50)/(target IC50),yeast,50
COC(=O)Cn1nc(-c2ccccc2)c2cccc(C)c21 [Compound I-82],IC50,[6],0.125 µM
same,Selectivity* (anti-target IC50)/(target IC50),yeast,40
c1ccc(-c2nn(Cc3nn[nH]n3)c3ccccc23)cc1 [Compound I-87],IC50,[6],> 160 µM
Cc1cc(Cn2nc(-c3ccccc3)c3ccccc32)on1 [Compound I-92],IC50,[6],30 µM
same,Selectivity* (anti-target IC50)/(target IC50),yeast,>5
COC(=O)Cn1nc(-c2ccccc2)c2ccccc21 [Compound I-96],IC50,[6],0.6 µM
COC(=O)Cn1nc(-c2cc(C(F)(F)F)ccc2F)c2cccc(C)c21 [Compound I-97],Emergence of resistance to fluconazole,[7],prevented the emergence of the resistance to fluconazole
same,Effect on SC5314,[8]; combination with fluconazole,cytotoxic
same,IC50,yeast; target is yeast,0.004 µM
same,Selectivity* (anti-target IC50)/(target IC50),yeast,200
same,Effect on CaCi-2,[9]; combination with fluconazole,cytotoxic
Cc1cccc2c(-c3cc(C(F)(F)F)ccc3F)nn(Cc3nnn(C)n3)c12 [Compound I-99],IC50,[6],0.023 µM
same,Selectivity* (anti-target IC50)/(target IC50),yeast,160
Cn1nnc(Cn2nc(-c3cc(OCCCC4CCCCC4)ccc3F)c3ccccc32)n1 [Compound I-102],IC50,[6],0.046 µM
same,Selectivity* (anti-target IC50)/(target IC50),yeast,16
O=C(O)Cn1nc(-c2ccccc2)c2ccccc21 [Compound I-107],IC50,[6],> 120 µM
Brc1cccnc1Cn1nc(-c2ccccc2)c2ccccc21 [Compound I-113],IC50,[6],> 120 µM
c1ccc(-c2nn(Cc3cnccn3)c3ccccc23)cc1 [Compound I-115],IC50,[6],0.63 µM
same,Selectivity* (anti-target IC50)/(target IC50),yeast,128
COC(=O)Cn1nc(-c2cccc(C#N)c2)c2ccccc21 [Compound I-118],IC50,[6],1.25 µM
same,Selectivity* (anti-target IC50)/(target IC50),yeast,96
COC(=O)Cn1nc(-c2cccc([N+](=O)[O-])c2)c2ccccc21 [Compound I-119],IC50,[6],0.5 µM
same,Selectivity* (anti-target IC50)/(target IC50),yeast,160
COC(=O)Cn1nc(-c2ccccn2)c2ccccc21 [Compound I-120],IC50,[6],15 µM
COC(=O)Cn1nc(-c2cccc(OCc3ccccc3)c2F)c2ccccc21 [Compound I-134],IC50,[6],0.2 µM
same,Selectivity* (anti-target IC50)/(target IC50),yeast,20
COC(=O)Cn1nc(-c2cc(OCc3ccccc3)ccc2F)c2ccccc21 [Compound I-136],IC50,[6],0.06 µM
same,Selectivity* (anti-target IC50)/(target IC50),yeast,8.3
COC(=O)Cn1nc(-c2cccc(OCc3ccccc3)c2)c2ccccc21 [Compound I-140],IC50,[6],0.4 µM
same,Selectivity* (anti-target IC50)/(target IC50),yeast,8
CCCCc1oc2ccccc2c1C(=O)c1cc(I)c(OCCN(CC)CC)c(I)c1 [amiodarone],"MIC50, single-agent antifungal activity",fungus,3.1 µM
"OC(Cn1cncn1)(Cn1cncn1)c1ccc(F)cc1F [fluconazole, reference compound]",MIC,CaCi-2,2 µg/mL
same,MIC,CaCi-8,8 µg/mL
same,inhibition at 8 µg/mL,C. albicans CaCi-2 [10],60 to 80%
same,Effect on SC5314,[8]; fluconazole alone,"cytostatic, but not cytotoxic"
same,Effect on CaCi-2,[9]; fluconazole alone,not cytostatic or cytotoxic
